According to ChEMBL document CHEMBL1201862, “PubChem BioAssay data set” (2004):
Calls of active or inactive are those of the source.

Legend:
[1] = inhibitors of clade B AD8 Env fusion, dose response, cell-based, cherry-pick (AID 652062); type: functional;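 also: luciferase signal from cell-cell fusion driven by HIV-1 clade B AD8 Env; potency is for inhibitors of fusion seen as a drop in luminescence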
[2] = inhibitors of HIV Env-driven cell fusion, dose response, cherry-pick (AID 652057); type: functional, cell-based
[3] = HIV-1 Env-mediated cell fusion inhibitors, dose response, CCR5-tropic Env (AID 2279); type: functional
[4] = molecular target: T1, High affinity choline transporter 1 (Homo sapiens, UniProt Q9GZV3); test: CHT inhibitors, dose response, cell-based, 5-point CRC, membrane potential dye (AID 504840); type: functional
T1 sequence (Q9GZV3 whole entry): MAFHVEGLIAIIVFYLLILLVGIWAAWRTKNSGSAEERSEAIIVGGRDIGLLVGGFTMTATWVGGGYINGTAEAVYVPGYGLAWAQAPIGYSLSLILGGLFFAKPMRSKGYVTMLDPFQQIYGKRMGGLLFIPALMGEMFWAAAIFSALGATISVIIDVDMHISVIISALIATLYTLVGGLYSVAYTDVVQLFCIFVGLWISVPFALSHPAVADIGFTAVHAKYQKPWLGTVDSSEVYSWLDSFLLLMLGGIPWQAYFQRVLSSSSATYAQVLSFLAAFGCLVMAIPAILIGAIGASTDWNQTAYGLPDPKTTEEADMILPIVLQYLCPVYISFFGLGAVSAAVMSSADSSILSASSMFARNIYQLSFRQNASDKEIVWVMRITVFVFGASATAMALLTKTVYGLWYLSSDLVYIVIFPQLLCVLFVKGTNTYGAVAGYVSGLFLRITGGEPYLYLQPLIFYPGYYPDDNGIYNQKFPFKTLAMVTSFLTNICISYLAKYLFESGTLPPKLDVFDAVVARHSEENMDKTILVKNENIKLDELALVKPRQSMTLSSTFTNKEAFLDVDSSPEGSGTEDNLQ

[5] = off-target signal loss in HeLa-CEM21 co-culture – HeLa F-luc CTL cells, cherry-picked, counter-screen for HIV-1 Env fusion inhibitor project, dose response (AID 652040); type: functional, cell-based;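 also: potency for signal decrease marking cytotoxic or nonspecific inhibition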
Aminopeptidase N = molecular target: T2, Aminopeptidase N (Plasmodium falciparum FcB1/Columbia, UniProt O96935); test: P. falciparum M1AAP inhibitors, biochemical, fluorogenic H-Leu-NHMec substrate, 1536-well (AID 1445); set-up: species or system Plasmodium falciparum 3D7, 3D7
T2 sequence (O96935 whole entry): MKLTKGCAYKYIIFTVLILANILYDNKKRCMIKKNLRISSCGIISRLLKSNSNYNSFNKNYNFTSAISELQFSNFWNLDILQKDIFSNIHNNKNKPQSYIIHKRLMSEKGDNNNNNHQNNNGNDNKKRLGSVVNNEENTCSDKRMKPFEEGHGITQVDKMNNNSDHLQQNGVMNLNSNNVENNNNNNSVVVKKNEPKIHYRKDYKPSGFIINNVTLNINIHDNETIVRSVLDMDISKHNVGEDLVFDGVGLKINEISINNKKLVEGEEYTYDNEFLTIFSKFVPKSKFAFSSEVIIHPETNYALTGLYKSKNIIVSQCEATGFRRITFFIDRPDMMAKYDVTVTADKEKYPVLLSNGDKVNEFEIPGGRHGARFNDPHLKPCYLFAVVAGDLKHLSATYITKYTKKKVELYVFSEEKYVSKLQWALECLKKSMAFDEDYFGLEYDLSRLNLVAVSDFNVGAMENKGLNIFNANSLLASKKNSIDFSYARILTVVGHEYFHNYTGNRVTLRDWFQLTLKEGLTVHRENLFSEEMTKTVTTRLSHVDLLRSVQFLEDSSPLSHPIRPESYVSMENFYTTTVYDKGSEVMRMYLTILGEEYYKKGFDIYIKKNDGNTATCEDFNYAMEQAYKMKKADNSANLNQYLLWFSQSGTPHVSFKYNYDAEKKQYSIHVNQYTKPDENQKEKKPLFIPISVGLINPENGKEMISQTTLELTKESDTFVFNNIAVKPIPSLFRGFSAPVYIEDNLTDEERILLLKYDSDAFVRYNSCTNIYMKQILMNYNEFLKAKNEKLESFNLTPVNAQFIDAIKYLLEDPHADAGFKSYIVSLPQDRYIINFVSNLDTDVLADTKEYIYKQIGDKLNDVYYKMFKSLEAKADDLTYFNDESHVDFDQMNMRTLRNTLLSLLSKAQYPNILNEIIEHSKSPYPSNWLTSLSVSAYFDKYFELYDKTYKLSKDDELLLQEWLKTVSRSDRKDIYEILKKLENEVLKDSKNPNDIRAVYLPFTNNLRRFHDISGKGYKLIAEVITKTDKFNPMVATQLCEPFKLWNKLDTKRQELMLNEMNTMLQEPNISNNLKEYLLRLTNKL

[6] = molecular target: T3, Neuropeptides B/W receptor type 1 (Homo sapiens, UniProt P48145); test: Fluorescence-based dose response cell-based high throughput screening assay to identify antagonists of the G-protein coupled receptor 7 (GPR7). [Related pubchem assays: 1952 (Screening assay (GPR7 antagonists).), 1880 (Summary AID.)]; type: functional
T3 sequence (P48145 whole entry): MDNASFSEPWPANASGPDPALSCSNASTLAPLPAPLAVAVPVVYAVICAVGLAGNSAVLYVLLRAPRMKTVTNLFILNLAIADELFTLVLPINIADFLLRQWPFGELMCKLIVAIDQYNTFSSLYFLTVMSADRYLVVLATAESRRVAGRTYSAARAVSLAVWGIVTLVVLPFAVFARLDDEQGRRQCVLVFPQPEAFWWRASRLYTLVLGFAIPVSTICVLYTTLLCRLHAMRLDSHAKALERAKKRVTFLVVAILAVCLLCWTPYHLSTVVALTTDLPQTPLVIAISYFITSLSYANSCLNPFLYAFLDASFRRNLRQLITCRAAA

[7] = molecular target: T4, Melanin-concentrating hormone receptor 1 (Homo sapiens, UniProt Q99705); test: Fluorescence-based counterscreen for antagonists of the G-protein coupled receptor 7 (GPR7): cell-based high throughput dose response assay to identify antagonists of the melanin-concentrating hormone receptor 1 (MCHR1).; type: functional
T4 sequence (Q99705 whole entry): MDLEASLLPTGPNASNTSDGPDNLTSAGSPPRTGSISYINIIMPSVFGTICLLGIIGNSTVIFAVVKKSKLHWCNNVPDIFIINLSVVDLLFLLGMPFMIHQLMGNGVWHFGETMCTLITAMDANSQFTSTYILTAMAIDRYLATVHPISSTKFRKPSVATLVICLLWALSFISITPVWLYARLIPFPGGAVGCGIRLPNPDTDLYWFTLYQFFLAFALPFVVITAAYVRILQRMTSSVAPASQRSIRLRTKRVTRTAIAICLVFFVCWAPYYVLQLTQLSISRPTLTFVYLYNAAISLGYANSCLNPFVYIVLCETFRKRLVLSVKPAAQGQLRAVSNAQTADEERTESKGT

Cytochrome P450 2C19 = Cytochrome P450 2C19 (Homo sapiens, UniProt P33261); test: qHTS Assay for Inhibitors and Substrates of Cytochrome P450 2C19. [Related pubchem assays: 410 ]; type: ADME; conditions: read-out: Potency
Cytochrome P450 2C19, sequence (P33261 whole entry): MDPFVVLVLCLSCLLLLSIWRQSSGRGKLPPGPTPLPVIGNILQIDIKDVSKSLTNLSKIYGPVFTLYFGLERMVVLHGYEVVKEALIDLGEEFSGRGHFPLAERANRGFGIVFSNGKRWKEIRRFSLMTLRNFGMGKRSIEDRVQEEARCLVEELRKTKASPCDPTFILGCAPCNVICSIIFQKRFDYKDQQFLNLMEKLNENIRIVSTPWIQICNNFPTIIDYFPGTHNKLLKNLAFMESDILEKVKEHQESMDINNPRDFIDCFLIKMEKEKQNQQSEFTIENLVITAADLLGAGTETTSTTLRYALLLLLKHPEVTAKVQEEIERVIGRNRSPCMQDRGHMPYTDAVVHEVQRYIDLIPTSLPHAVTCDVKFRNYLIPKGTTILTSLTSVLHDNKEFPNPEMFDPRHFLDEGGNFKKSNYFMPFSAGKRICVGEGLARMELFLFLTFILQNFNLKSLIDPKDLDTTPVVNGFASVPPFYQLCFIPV

Cytochrome P450 2C9 = Cytochrome P450 2C9 (Homo sapiens, UniProt P11712); conditions: Potency
Cytochrome P450 2C9, sequence (P11712 whole entry): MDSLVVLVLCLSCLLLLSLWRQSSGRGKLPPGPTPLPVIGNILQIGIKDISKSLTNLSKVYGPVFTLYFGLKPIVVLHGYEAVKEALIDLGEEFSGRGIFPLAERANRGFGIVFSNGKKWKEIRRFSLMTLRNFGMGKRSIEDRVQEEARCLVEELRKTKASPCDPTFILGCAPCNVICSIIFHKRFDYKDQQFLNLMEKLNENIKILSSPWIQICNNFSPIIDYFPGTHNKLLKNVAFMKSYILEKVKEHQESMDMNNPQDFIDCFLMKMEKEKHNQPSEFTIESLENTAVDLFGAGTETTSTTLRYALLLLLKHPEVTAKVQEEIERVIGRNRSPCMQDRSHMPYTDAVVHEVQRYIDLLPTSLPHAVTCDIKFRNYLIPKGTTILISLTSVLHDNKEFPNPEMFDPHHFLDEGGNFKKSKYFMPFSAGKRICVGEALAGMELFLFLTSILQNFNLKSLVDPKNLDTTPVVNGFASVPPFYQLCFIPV

[8] = molecular target: Heat shock 70 kDa protein 1A (Homo sapiens, UniProt P0DMV8); test: Hsp70 inhibitors, SAR follow-up, biochemical, fluorescence polarization (AID 1072)
Heat shock 70 kDa protein 1A, sequence (P0DMV8 whole entry): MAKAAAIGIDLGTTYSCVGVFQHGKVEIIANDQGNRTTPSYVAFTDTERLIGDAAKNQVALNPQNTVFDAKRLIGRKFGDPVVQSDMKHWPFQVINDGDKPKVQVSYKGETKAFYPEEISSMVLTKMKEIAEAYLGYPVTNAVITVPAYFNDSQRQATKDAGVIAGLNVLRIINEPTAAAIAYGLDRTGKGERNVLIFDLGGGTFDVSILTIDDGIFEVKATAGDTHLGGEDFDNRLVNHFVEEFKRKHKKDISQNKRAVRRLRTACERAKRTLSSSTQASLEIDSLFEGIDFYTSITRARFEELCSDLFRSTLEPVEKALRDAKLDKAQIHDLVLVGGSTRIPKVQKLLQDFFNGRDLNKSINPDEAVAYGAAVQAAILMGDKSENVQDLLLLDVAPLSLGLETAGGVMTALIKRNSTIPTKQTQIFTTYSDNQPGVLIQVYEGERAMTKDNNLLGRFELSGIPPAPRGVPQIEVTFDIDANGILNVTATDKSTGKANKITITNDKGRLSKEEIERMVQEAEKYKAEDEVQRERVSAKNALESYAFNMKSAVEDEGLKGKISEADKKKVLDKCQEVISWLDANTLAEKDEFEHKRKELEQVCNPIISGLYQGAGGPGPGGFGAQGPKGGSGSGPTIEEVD

[9] = molecular target: Heat shock cognate 71 kDa protein (Homo sapiens, UniProt P11142); test: In Vitro Hsc70 Dose Response Fluorescence Polarization Assay. [Related pubchem assays: 1072 ]
Heat shock cognate 71 kDa protein, sequence (P11142 whole entry): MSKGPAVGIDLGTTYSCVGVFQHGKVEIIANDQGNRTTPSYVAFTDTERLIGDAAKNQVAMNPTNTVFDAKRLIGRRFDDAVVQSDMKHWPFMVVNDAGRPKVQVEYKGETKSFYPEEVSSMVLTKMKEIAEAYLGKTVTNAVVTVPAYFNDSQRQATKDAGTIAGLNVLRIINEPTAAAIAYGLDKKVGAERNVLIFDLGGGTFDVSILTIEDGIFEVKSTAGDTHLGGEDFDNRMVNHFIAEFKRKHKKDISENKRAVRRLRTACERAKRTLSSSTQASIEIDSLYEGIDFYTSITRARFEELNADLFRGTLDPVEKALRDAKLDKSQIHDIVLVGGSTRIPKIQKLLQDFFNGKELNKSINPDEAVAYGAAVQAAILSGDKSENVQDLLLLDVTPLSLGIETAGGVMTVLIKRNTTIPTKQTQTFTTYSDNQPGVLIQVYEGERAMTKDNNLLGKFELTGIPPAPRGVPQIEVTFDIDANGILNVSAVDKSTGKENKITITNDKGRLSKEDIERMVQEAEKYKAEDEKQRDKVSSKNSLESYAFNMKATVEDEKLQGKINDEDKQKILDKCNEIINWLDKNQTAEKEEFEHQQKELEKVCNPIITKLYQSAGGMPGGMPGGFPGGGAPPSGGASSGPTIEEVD

[10] = molecular target: T5, Alkaline phosphatase, tissue-nonspecific isozyme (Homo sapiens, UniProt P05186)
T5 sequence (P05186 whole entry): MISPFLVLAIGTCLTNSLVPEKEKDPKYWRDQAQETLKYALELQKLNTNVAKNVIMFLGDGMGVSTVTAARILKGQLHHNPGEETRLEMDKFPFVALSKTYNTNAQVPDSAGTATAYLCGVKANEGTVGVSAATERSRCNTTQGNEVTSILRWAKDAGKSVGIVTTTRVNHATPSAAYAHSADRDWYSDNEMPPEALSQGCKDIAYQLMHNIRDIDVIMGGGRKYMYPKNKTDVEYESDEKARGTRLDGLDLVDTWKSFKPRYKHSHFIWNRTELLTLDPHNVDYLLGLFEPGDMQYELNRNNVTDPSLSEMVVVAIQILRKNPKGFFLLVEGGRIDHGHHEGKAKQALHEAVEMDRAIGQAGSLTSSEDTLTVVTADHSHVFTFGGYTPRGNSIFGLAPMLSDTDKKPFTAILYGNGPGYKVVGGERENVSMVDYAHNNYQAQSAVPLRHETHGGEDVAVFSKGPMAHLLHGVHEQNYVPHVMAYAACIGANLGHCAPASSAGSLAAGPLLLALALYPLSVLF

Nonstructural protein 1 = Nonstructural protein 1 (Influenza A virus, UniProt Q194T2); type: functional, Influenza A virus (A/California/07/2009(H1N1))
Nonstructural protein 1, sequence (Q194T2 whole entry): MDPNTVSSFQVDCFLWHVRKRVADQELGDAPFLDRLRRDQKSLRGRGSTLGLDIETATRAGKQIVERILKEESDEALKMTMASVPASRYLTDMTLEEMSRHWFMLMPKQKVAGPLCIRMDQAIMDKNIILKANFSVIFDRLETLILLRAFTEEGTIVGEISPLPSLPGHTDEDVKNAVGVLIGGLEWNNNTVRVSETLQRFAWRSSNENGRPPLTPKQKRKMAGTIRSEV

[11] = molecular target: T4, Melanin-concentrating hormone receptor 1; test: Late-stage fluorescence-based counterscreen for antagonists of the G-protein coupled receptor 7 (GPR7): cell-based dose response assay to identify antagonists of the melanin-concentrating hormone receptor 1 (MCHR1). [Related pubchem assays (depositor defined):AID1861, AID1880, AID1952, AID2148, AID2251, AID2257, AID485339]; type: functional
[12] = cytotoxicity in HPDE-C7 cells, cell-based, fluorescence, HTS (AID 430); type: functional; conditions: Homo sapiens
[13] = half-maximal inhibitory concentration for glucagon-like peptide-1 release, STC-1 cell line, dose-response (AID 1117345); type: functional, cell-based
[14] = cytotoxicity in KRAS-transformed pancreatic duct cells, primary screen, cell-based, fluorescence, HTS (AID 431); type: functional; conditions: Homo sapiens;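 also: cell line used: HPDE-C7K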
[15] = molecular target: Heat shock protein HSP 90-alpha (Homo sapiens, UniProt P07900); type: functional, organism-based
[16] = molecular target: T6, Replicative DNA helicase DnaB (Mycobacterium tuberculosis, UniProt P9WMR3); test: DnaB intein splicing inhibitors, dose response, biochemical, cell-free fluorescence (AID 449749); type: functional
T6 sequence (P9WMR3 whole entry): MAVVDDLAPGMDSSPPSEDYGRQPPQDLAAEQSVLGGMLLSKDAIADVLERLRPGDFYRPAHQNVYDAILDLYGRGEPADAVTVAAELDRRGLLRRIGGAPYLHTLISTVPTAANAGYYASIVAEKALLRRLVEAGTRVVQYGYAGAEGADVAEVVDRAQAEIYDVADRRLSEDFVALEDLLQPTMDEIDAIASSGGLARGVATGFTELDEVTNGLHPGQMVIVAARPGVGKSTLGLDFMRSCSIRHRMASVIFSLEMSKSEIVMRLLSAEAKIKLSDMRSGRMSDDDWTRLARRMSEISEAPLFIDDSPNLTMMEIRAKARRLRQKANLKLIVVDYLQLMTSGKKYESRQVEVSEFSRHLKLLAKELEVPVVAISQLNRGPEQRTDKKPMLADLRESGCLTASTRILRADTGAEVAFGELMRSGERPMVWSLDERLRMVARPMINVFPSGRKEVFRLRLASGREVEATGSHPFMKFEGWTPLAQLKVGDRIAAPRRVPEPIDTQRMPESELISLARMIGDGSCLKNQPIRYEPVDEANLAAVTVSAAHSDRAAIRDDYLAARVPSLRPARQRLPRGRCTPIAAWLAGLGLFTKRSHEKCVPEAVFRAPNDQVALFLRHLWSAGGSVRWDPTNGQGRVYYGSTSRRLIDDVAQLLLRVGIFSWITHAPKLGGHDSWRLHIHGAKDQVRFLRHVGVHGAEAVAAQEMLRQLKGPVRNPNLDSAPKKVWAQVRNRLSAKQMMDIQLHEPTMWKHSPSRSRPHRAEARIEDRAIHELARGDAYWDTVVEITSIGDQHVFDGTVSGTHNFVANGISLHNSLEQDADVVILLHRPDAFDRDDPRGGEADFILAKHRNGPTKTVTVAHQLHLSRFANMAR

[17] = Glucagon-like peptide 1 release potency, NCI-H716 cell line, dose-response, half-maximal inhibitory concentration (AID 1117344); type: functional, cell-based
Protein RecA = molecular target: T7, Protein RecA (Mycobacterium tuberculosis, UniProt P9WHJ3); test: Fluorescence Cell-Free Homogeneous Dose Retest to Identify Inhibitors of RecA-Intein Splicing Activity. [Related pubchem assays (depositor defined):AID2097, AID2223, AID489010, AID492950]; type: functional
T7 sequence (P9WHJ3 whole entry): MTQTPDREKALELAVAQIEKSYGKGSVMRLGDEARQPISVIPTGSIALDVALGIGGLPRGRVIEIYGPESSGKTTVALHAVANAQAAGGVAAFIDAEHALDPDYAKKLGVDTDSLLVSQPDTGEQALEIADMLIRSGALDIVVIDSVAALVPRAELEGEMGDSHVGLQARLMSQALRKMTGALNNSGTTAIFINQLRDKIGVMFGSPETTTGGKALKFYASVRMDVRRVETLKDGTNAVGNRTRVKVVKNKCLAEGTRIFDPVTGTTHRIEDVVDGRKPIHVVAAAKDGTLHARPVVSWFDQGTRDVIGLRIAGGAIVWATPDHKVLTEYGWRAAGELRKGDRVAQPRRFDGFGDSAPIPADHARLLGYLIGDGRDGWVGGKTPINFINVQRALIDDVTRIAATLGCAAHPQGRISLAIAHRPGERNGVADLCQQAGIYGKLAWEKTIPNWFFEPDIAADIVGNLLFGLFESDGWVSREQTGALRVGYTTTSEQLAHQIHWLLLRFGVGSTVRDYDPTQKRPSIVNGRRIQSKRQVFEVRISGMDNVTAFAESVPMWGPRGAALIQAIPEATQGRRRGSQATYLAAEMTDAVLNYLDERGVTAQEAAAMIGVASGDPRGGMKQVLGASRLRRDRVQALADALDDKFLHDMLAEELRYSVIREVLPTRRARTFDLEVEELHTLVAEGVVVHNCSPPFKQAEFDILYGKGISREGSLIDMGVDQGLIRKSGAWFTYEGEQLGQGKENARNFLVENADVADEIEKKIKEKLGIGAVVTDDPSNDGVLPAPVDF

## O=S(=O)(Nc1nc2ccccc2nc1Nc1cccc(S(=O)(=O)N2CCCCC2)c1)c1ccccc1
[1]
  AC50: 12 µM (active)
[2]
  AC50: 8.16 µM (active)
[3]
  IC50: 5.7 µM (active)
[4]
  IC50: 12 µM (active)
[5]
  AC50: 23.9 µM (active)
Aminopeptidase N
  IC50: 91.9 µM (active)

## COc1ccc(OCC(=O)Nc2ccc3c(c2)C(=O)NC3=O)cc1
[6]
  IC50: > 43.8 µM (not active)
[7]
  IC50: > 43.8 µM (not active)

## Cc1ccc(C(=O)N2CCCCC2)cc1S(=O)(=O)N1CCCCCC1
[6]
  IC50: > 43.8 µM (not active)
[7]
  IC50: > 43.8 µM (not active)

## CCCCCCCCCCCCCCCCOC[C@@H](COCC(F)(F)F)OP(=O)(O)OCO
Cytochrome P450 2C19
  AC50: 0.002 µM (inconclusive)
Cytochrome P450 2C9
  AC50: 39.8 µM (inconclusive)

## O=C1C=C2CC3(O)CCc4c(ccc(O)c4O)C3=C2C=C1O (stereo not given)
[8]
  IC50: 34.2 µM (active)
[9]
  IC50: > 100 µM (not active)

## Cc1c(C(=O)N(C)C)sc2[nH]c(-c3ccccn3)nc(=O)c12
[10]
  EC50: 63.6 µM (not active)
Nonstructural protein 1
  IC50: 13.1 µM (active)

## COc1ccc(Oc2c(/C=N/O)cnn(-c3ccc(C(C)C)cc3)c2=O)cc1
[11]
  IC50: > 20 µM (inactive)

## Clc1ccc(CSC(Cn2ccnc2)c2ccc(Cl)cc2Cl)cc1 (stereo not given) [SULCONAZOLE NITRATE]
[12]
  EC50: 7.1 µM (active)
[13]
  IC50: > 40 µM (inactive)
[14]
  EC50: 8.21 µM (active)
[15]
  AC50: 0.294 µM (active)
[10]
  EC50: 60.3 µM (not active)
[16]
  AC50: 3.52 µM (active)
[17]
  IC50: 21 µM (inactive)
Protein RecA
  EC50: 9.78 µM (active)
